According to PubChem BioAssay (NCI):
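Five compound concentrations were applied to cells in 96-well plates for 48 hours; endpoints were derived by simple linear interpolation of the resulting dose-response curve. TGI denotes the concentration required for complete inhibition of growth.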

Tests used:
Assay in all cases: NCI-60 cell line screen, 48 h
[1] = system: A498 renal
[2] = system: A549 NSCLC
[3] = system: DLD-1 colon
[4] = system: DMS 273 small cell lung
[5] = system: HL-60(TB) leukemia
[6] = system: HT29 colon
[7] = system: M19-MEL melanoma
[8] = system: NCI-H460 lung
[9] = system: SK-MEL-2 melanoma
[10] = system: SNB-75 CNS

Row | Structure (SMILES) | TGI [1] | TGI [2] | TGI [3] | TGI [4] | TGI [5] | TGI [6] | TGI [7] | TGI [8] | TGI [9] | TGI [10]
1 | Cc1cccc(C)c1NC(=O)C(=O)CC(=O)c1cccc([N+](=O)[O-])c1 | > 100 µM | > 100 µM | > 100 µM | > 100 µM | > 100 µM | > 100 µM | > 100 µM | > 100 µM | > 100 µM | > 100 µM
2 | C/C(CCn1[nH]c(=O)ccc1=O)=N\OCCCc1ccccc1 | > 100 µM | > 100 µM | > 100 µM | > 100 µM | > 100 µM | > 100 µM | > 100 µM | > 100 µM | > 100 µM | > 100 µM
3 | CC(C)(C)OC(=O)N1N=NC2C1C1CC(OCc3ccccc3)(OCc3ccccc3)C2O1 (stereo not given) | > 100 µM | > 100 µM | > 100 µM | > 100 µM | 31.9 µM | > 100 µM | > 100 µM | > 100 µM | > 100 µM | > 100 µM
